The test system of series [1] is chorioallantoic membrane (CAM) of chicken embryos. Briefly: Chick chorioallantoic membrane (CAM) assay. The series is classed as in vivo. Conditions: purified protein applied daily to gelfoam sponge, 72 h. Here is the method:
Chick Chorioallantoic Membrane Assay—
Fertilized chicken eggs (Sunrise Farms, Catskill, N.Y.) day 1-2 post-laying were incubated in a humidified incubator at 37° C. for 72 h. Cleaned eggs were cracked and plated in a sterile 10 cm^2 tissue culture-treated dish and incubated at 37° C. for another 7 days. On developmental day 10, 1 mm^3 sterile gelatin sponge pieces (Surgifoam®; Johnson & Johnson Wound Management, Somerville, N.J.) were placed within the outer one-third of the membrane between large vessels. […] All compounds were applied in 10 μl to the CAM every 24 h for 72 h. Images were taken using a Leica MZ6 stereomicroscope every 24 h. Compounds were scored according to a modified version of Intensity Scoring as previously described (Ribatti, Nico et al. 2006). Briefly, each experimental condition was given a blinded score from 0-5 based on the change in the extent of vessel convergence and formation in proximity to the sponge from day 0 to day 3. Total score is averaged individual experimental condition scores from at least 15 replicates.
Fertilized chicken embryos were cultured ex-ova and, starting at developmental day 10, agents were applied daily to gelfoam sponges on the CAM. Images were recorded daily over 72 h and scored blindly according to a modified version Intensity Scoring as previously described (Ribatti, Nico et al. 2006). Additional details regarding methods are provided in the Methods and Materials section of Example 1.

A short description of series [2]: LARS steady state ATPase activity (32P-ATP to AMP). The series is classed as biochemical. Conditions: 1 μM human LARS. As to the method:
LARS steady state ATPase activity was determined using the same procedure as for TARS aminoacylation with the following modifications. […] ATP (PerkinElmer, Waltham, Mass.) was added. Reactions were incubated for 3 minutes at 37° C. and initiated with the addition of 1 μM human LARS. At various time points 5 μl aliquots were quenched in 45 μl of 500 mM sodium acetate and 0.1% sodium dodecyl sulfate. For each sample, 1 μl was spotted onto a CCM cellulose PEI F plates (EMD) and resolved via thin-layer chromatography in 0.75 M potassium phosphate buffer mobile phase. Radioactive signals were detected via phosphorimaging and AMP production overtime was quantified using Quantity One v 4.6.6 software (Bio-Rad, Hercules, Calif.).

Series [3] relates to HUVEC. Briefly: Transwell migration assay. The class given is cell-based, human. The following applies: 100 nM protein in migration compartment, 4 h. Here is the method: Transwell Migration Assay—
Migration was assessed using transwell inserts (Svensson, Kucharzewska et al. 2011). […] Cultures were incubated for 4 h, fixed in 10% formalin, and stained with 10 μg/ml DAPI solution (Roche) following removal of cells from the top layer of the chamber with a cotton swab. Migrated cells were imaged using a 4× objective on the Olympus IX70 Inverted microscope (Olympus). DAPI-stained nuclei were counted using ImageJ software.

Entries after “also recorded” stand apart in the source; their conditions may differ.

For the substance “LARS: N-terminal HIS6-tagged human leucyl tRNA synthetase purified from E. coli”, the “CAM vessel formation / vascularity, effect of applied synthetase” value in series [1] is given as “no observable effect; also recorded: no effect on angiogenesis”. The “LARS enzyme activity (conversion of 32P-ATP to AMP)” value in series [2] was “exhibits enzyme activity”. Also, the “migration of endothelial cells” value in series [3] was “did not affect migration”.

These data come from patent US10125358B2, “Methods and compounds for increasing threonyl-tRNA synthetase activity” (UNIVERSITY OF VERMONT AND STATE AGRICULTURAL COLLEGE, priority 2012, dated 2018).
